Test results from patent US4782135A (priority 1983, dated 1988).
Where two headings read alike, the source gives them in different places.

Legend:
[1] = tested on: coxsackie (COX) A21; format: cell-based, coxsackie virus
[2] = tested on: herpes simplex virus (HSV) type 2; format: cell-based, herpes simplex virus type 2
[3] = tested on: ML cells
[4] = tested on: Vero cells
[5] = tested on: herpes simplex virus (HSV) type 1; format: cell-based, herpes simplex virus type 1
[6] = tested on: equine rhinovirus (ER); format: cell-based
[7] = tested on: P388 leukemia; assay: In vivo P388 mouse leukemia test; set-up: species or system mice
Description: The P388 mouse leukemia test is described in detail in a publication by G. L. Neil, et. al., Cancer Treatment Reports 63, 1971-1978 (1979).
^a Schedule of Injection: daily intraperitoneal injection for 9 days
following tumor implantation.
^b Median survival time of control animals = 10.3 days.
^a Schedule of injection: Intraperitoneal injection on Day 1, 5, and
9, following Tumor inoculation.
^b Median survival time of Control (no drug) animals: 10.2 days.

[8] = tested on: L1210 mouse leukemia cells; assay: L1210 tube dilution assay; format: cell-based; settings: for ID50: concentration to inhibit L1210 cell growth by 50 percent; for ID90: concentration to inhibit L1210 cell growth by 90 percent
Description: The L1210 tube dilution assay is described in detail in a publication by L. H. Li, et al., Cancer Research 39: 4816 (1979).

[9] = for Solubility in organic solvents: methanol, ethanol, isopropanol, dioxane, ethyl acetate, and chloroform
[10] = ML cells infected with coxsackie A21
[11] = 63 μg/kg/injection, daily i.p. for 9 days
[12] = 63 μg/kg/injection, daily i.p. for 9 days, control 10.3 days
[13] = 125 μg/kg/injection, daily i.p. for 9 days
[14] = 125 μg/kg/injection, daily i.p. for 9 days, control 10.3 days
[15] = 250 μg/kg/injection, daily i.p. for 9 days
[16] = 250 μg/kg/injection, daily i.p. for 9 days, control 10.3 days
[17] = 250 μg/kg/injection, i.p. on Day 1, 5 and 9
[18] = 250 μg/kg/injection, i.p. on Day 1, 5 and 9, control 10.2 days
[19] = 500 μg/kg/injection, daily i.p. for 9 days
[20] = 500 μg/kg/injection, i.p. on Day 1, 5 and 9
[21] = 500 μg/kg/injection, i.p. on Day 1, 5 and 9, control 10.2 days
[22] = 1000 μg/kg/injection, daily i.p. for 9 days
[23] = 1000 μg/kg/injection, i.p. on Day 1, 5 and 9
[24] = 1000 μg/kg/injection, i.p. on Day 1, 5 and 9, control 10.2 days
[25] = 2000 μg/kg/injection, daily i.p. for 9 days
[26] = 2000 μg/kg/injection, i.p. on Day 1, 5 and 9
[27] = 4000 μg/kg/injection, i.p. on Day 1, 5 and 9
[28] = 8000 μg/kg/injection, i.p. on Day 1, 5 and 9
[29] = uninfected ML cells, 50% cell destruction, overnight incubation
[30] = uninfected Vero cells, 50% cell destruction, overnight incubation
[31] = ML cells infected with equine rhinovirus
[32] = 30 μg/kg/injection, i.p. on Day 1, 5 and 9
[33] = 60 μg/kg/injection, i.p. on Day 1, 5 and 9
[34] = 120 μg/kg/injection, i.p. on Day 1, 5 and 9

In the case of didemnin C, the “ID50 Antiviral-cox virus” value [1] was under 1.5, the “Ratio (cytotoxic concentration ÷ antiviral concentration), cox virus” value [1] was over 4 and the “ID50 Antiviral-HSV-2 virus” value [2] was under 1.5. For the same substance, the “Ratio (cytotoxic concentration ÷ antiviral concentration), HSV-2 virus” value (“Ratio … HSV-2 virus” for short) [2] was over 33, the “ID50 Toxicity-ML cells” value [3] was 6 and the “ID50 Toxicity-Vero cells” value [4] was 50. For the same substance, the “ID50 Antiviral-HSV-1 virus” value [5] was under 1.5, the “Ratio (cytotoxic concentration ÷ antiviral concentration), HSV-1 virus” value (from here on “Ratio … HSV-1 virus”) [5] was over 33 and the “ID50 Antiviral-ER virus” value [6] was under 1.5. For the same substance, the “Ratio (cytotoxic concentration ÷ antiviral concentration), ER virus” value [6] was over 4.

With didemnin A the “Ratio (cytotoxic concentration ÷ antiviral concentration), cox virus” value ([1]; ML cells) was 17, the “ID50 Antiviral-cox virus” value [1, 10] was 1.5 µg/mL and the T/C [7, 11] was 104%. The “Weight Change” value [7, 11] was “+0.9 g”, the “Median Survival Time” value [7, 12] was 10.7 days and the T/C [7, 13] was 115%. For the same substance, the “Weight Change” value [7, 13] was “+1.4 g”, the “Median Survival Time” value [7, 14] was 11.9 days and the T/C [7, 15] was 119%. The “Weight Change” value [7, 15] was “+1.0 g”, the “Median Survival Time” value [7, 16] was 12.2 days and the T/C [7, 17] was 109%. For the same substance, the “Weight Change” value [7, 17] was “+1.7 g”, the “Median Survival Time” value [7, 18] was 11.1 days and the T/C [7, 19] was 129%. For the same substance, the “Weight Change” value [7, 19] was “+0.9 g”, the “Median Survival Time” value ([7]; 500 μg/kg/injection, daily i.p. for 9 days, control 10.3 days) was 13.2 days and the T/C [7, 20] was 118%. The “Weight Change” value [7, 20] was “+1.6 g”, the “Median Survival Time” value [7, 21] was 12.1 days and the T/C [7, 22] was 158%. The “Weight Change” value [7, 22] was “+0.3 g”, the “Median Survival Time” value ([7]; 1000 μg/kg/injection, daily i.p. for 9 days, control 10.3 days) was 16.2 days and the T/C [7, 23] was 118%. The “Weight Change” value [7, 23] was “+1.8 g”, the “Median Survival Time” value [7, 24] was 12.1 days and the T/C [7, 25] was 155%. For the same substance, the “Weight Change” value [7, 25] was -0.2 g, the “Median Survival Time” value ([7]; 2000 μg/kg/injection, daily i.p. for 9 days, control 10.3 days) was 16.0 days and the T/C [7, 26] was 121%. The “Weight Change” value [7, 26] was “+2.0 g”, the “Median Survival Time” value ([7]; 2000 μg/kg/injection, i.p. on Day 1, 5 and 9, control 10.2 days) was 12.4 days and the T/C [7, 27] was 130%. For the same substance, the “Weight Change” value [7, 27] was “+1.3 g”, the “Median Survival Time” value ([7]; 4000 μg/kg/injection, i.p. on Day 1, 5 and 9, control 10.2 days) was 13.3 days and the T/C [7, 28] was 140%. The “Weight Change” value [7, 28] was “+0.8 g”, the “Median Survival Time” value ([7]; 8000 μg/kg/injection, i.p. on Day 1, 5 and 9, control 10.2 days) was 14.3 days and the “Activity in vivo against P388 leukemia in mice” value [7] was “active”. For the same substance, the “Ratio … HSV-2 virus” value ([2]; Vero cells) was 33, the “ID50 Antiviral-HSV-2 virus” value ([2]; Vero cells infected with HSV-2) was 1.5 µg/mL and the ID50 [8] was 0.019 µg/mL. For the same substance, the ID90 [8] was 0.058 µg/mL, the “Inhibition of growth of L1210 mouse leukemia cells in vitro (words)” value (from here on “Inhibition”) [8] was “inhibit the growth” and the “ID50 Toxicity-ML cells” value [3, 29] was 25 µg/mL. For the same substance, the “ID50 Toxicity-Vero cells” value [4, 30] was 50 µg/mL, the “Ratio … HSV-1 virus” value ([5]; Vero cells) was 17 and the “ID50 Antiviral-HSV-1 virus” value ([5]; Vero cells infected with HSV-1) was 3 µg/mL. The “Solubility in organic solvents” value [9] was “soluble”, the Solubility in toluene [9] was “sparingly soluble” and the Solubility in water [9] was “insoluble”. The “Ratio (cytotoxic concentration ÷ antiviral concentration), ER virus” value ([6]; ML cells) was 17 and the “ID50 Antiviral-ER virus” value [6, 31] was 1.5 µg/mL.

In the case of didemnin B, the “ID50 Antiviral-cox virus” value [1, 10] was under 1.5 µg/mL, the T/C [7, 32] was 125% and the “Weight Change” value [7, 32] was “+1.6 g”. For the same substance, the “Median Survival Time” value ([7]; 30 μg/kg/injection, i.p. on Day 1, 5 and 9, control 10.2 days) was 12.8 days, the T/C [7, 33] was 140% and the “Weight Change” value [7, 33] was “+1.2 g”. The “Median Survival Time” value ([7]; 60 μg/kg/injection, i.p. on Day 1, 5 and 9, control 10.2 days) was 14.3 days, the T/C [7, 11] was 143% and the “Weight Change” value [7, 11] was “+0.1 g”. For the same substance, the “Median Survival Time” value [7, 12] was 14.8 days, the T/C [7, 34] was 147% and the “Weight Change” value [7, 34] was “+0.2 g”. For the same substance, the “Median Survival Time” value ([7]; 120 μg/kg/injection, i.p. on Day 1, 5 and 9, control 10.2 days) was 15.0 days, the T/C [7, 13] was 136% and the “Weight Change” value [7, 13] was -0.6 g. For the same substance, the “Median Survival Time” value [7, 14] was 14.0 days, the T/C [7, 15] was 138% and the “Weight Change” value [7, 15] was -2.2 g. The “Median Survival Time” value [7, 16] was 14.2 days, the T/C [7, 17] was 157% and the “Weight Change” value [7, 17] was -0.5 g. For the same substance, the “Median Survival Time” value [7, 18] was 16.0 days, the “Weight Change” value [7, 19] was -3.4 g and the T/C [7, 20] was 176%. For the same substance, the “Weight Change” value [7, 20] was -1.7 g, the “Median Survival Time” value [7, 21] was 18.0 days and the T/C [7, 23] was 199%. The “Weight Change” value [7, 23] was -3.8 g, the “Median Survival Time” value [7, 24] was 20.3 days and the “Activity in vivo against P388 leukemia in mice” value [7] was “active”. The “Ratio … HSV-2 virus” value ([2]; Vero cells) was 8, the “ID50 Antiviral-HSV-2 virus” value ([2]; Vero cells infected with HSV-2) was 1.5 µg/mL and the ID50 [8] was 0.0018 µg/mL. The ID90 [8] was 0.0059 µg/mL, the “Inhibition” value [8] was “inhibit the growth” and the “Inhibition” value ([8]; listed as didemnin B) was “inhibit”. The “ID50 Toxicity-ML cells” value [3, 29] was under 1.5 µg/mL, the “ID50 Toxicity-Vero cells” value [4, 30] was 12 µg/mL and the “Ratio … HSV-1 virus” value ([5]; Vero cells) was 8. For the same substance, the “ID50 Antiviral-HSV-1 virus” value ([5]; Vero cells infected with HSV-1) was 1.5 µg/mL, the “Solubility in organic solvents” value [9] was “soluble” and the Solubility in toluene [9] was “sparingly soluble”. The Solubility in water [9] was “insoluble” and the “ID50 Antiviral-ER virus” value [6, 31] was under 1.5 µg/mL.
